Measurements as given in the supplement of paper PMC13207355.
Structures can show the parent of a compound that is named as a salt.

Assays:
Settings in all cases: exposure time: 72 h
[1] = system: E13 (patient-derived glioblastoma stem cells of classical subtype); assay: phenotypic distance (Euclidean, principal components) from DMSO controls (arbitrary units); higher = stronger morphological change
[2] = system: E28 (patient-derived glioblastoma stem cells of classical subtype); assay: as above
[3] = system: E57 (patient-derived glioblastoma stem cells of mesenchymal subtype); assay: as above
[4] = system: E31 (patient-derived glioblastoma stem cells of proneural subtype); assay: as above
[5] = system: E34 (patient-derived glioblastoma stem cells of proneural subtype); assay: as above
[6] = system: E21 (patient-derived glioblastoma stem cells of mesenchymal subtype); assay: as above
[7] = system: FT3469 (normal neural stem cell line); assay: as above
[8] = system: E13; assay: surviving fraction (nuclei count normalised to DMSO); higher = more cells surviving (less toxic)
[9] = system: E28; assay: as above
[10] = system: E57; assay: as above
[11] = system: E31; assay: as above
[12] = system: E34; assay: as above
[13] = system: E21; assay: as above
[14] = system: FT3469; assay: as above
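For phenotypic distance (Euclidean, principal components) from DMSO controls in this document: cell Painting imaging in 384-well plates, CellProfiler features reduced to at least 20 principal components, Euclidean distance versus same-plate DMSO vehicle wells (0.1% v/v), median over six images per well.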
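For surviving fraction (nuclei count normalised to DMSO) in this document: nuclei counted by high-content imaging of Hoechst-stained cells in laminin-coated 384-well plates, relative to 0.1% DMSO vehicle wells, with staurosporine as cell-death control.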

N=C(N)NCc1cccc(I)c1 [Iobenguane sulfate]
Settings | phenotypic distance | surviving fraction
[1], 4.1 nM | 0.573 | –
[1], 12.3 nM | 0.965 | –
[1], 37 nM | 0.696 | –
[1], 111.1 nM | 0.835 | –
[1], 333.3 nM | 0.643 | –
[1], 1000 nM | 0.541 | –
[1], 3000 nM | 0.796 | –
[2], 4.1 nM | 0.591 | –
[2], 12.3 nM | 0.866 | –
[2], 37 nM | 0.64 | –
[2], 111.1 nM | 0.721 | –
[2], 333.3 nM | 0.496 | –
[2], 1000 nM | 0.786 | –
[2], 3000 nM | 0.814 | –
[3], 4.1 nM | 0.755 | –
[3], 12.3 nM | 0.843 | –
[3], 37 nM | 0.712 | –
[3], 111.1 nM | 0.905 | –
[3], 333.3 nM | 0.728 | –
[3], 1000 nM | 0.452 | –
[3], 3000 nM | 0.547 | –
[4], 4.1 nM | 0.547 | –
[4], 12.3 nM | 0.684 | –
[4], 37 nM | 0.567 | –
[4], 111.1 nM | 0.714 | –
[4], 333.3 nM | 0.802 | –
[4], 1000 nM | 0.469 | –
[4], 3000 nM | 0.734 | –
[5], 4.1 nM | 0.386 | –
[5], 12.3 nM | 0.879 | –
[5], 37 nM | 0.823 | –
[5], 111.1 nM | 0.771 | –
[5], 333.3 nM | 1.44 | –
[5], 1000 nM | 0.934 | –
[5], 3000 nM | 0.966 | –
[6], 4.1 nM | 0.441 | –
[6], 12.3 nM | 0.695 | –
[6], 37 nM | 1.24 | –
[6], 111.1 nM | 0.881 | –
[6], 333.3 nM | 0.867 | –
[6], 1000 nM | 0.81 | –
[6], 3000 nM | 0.765 | –
[7], 4.1 nM | 0.354 | –
[7], 12.3 nM | 3.38 | –
[7], 37 nM | 0.885 | –
[7], 111.1 nM | 1.06 | –
[7], 333.3 nM | 1.08 | –
[7], 1000 nM | 0.871 | –
[7], 3000 nM | 0.634 | –
[8], 4.1 nM | – | 0.873
[8], 12.3 nM | – | 0.869
[8], 37 nM | – | 0.916
[8], 111.1 nM | – | 0.908
[8], 333.3 nM | – | 0.989
[8], 1000 nM | – | 0.922
[8], 3000 nM | – | 1.08
[9], 4.1 nM | – | 0.875
[9], 12.3 nM | – | 1.03
[9], 37 nM | – | 0.94
[9], 111.1 nM | – | 1.05
[9], 333.3 nM | – | 1.04
[9], 1000 nM | – | 1.05
[9], 3000 nM | – | 0.936
[10], 4.1 nM | – | 1.03
[10], 12.3 nM | – | 0.978
[10], 37 nM | – | 0.973
[10], 111.1 nM | – | 1.03
[10], 333.3 nM | – | 0.992
[10], 1000 nM | – | 1.01
[10], 3000 nM | – | 1.04
[11], 4.1 nM | – | 0.961
[11], 12.3 nM | – | 0.997
[11], 37 nM | – | 0.864
[11], 111.1 nM | – | 1.15
[11], 333.3 nM | – | 1.07
[11], 1000 nM | – | 1.13
[11], 3000 nM | – | 0.964
[12], 4.1 nM | – | 0.935
[12], 12.3 nM | – | 1.1
[12], 37 nM | – | 1.02
[12], 111.1 nM | – | 0.975
[12], 333.3 nM | – | 1.08
[12], 1000 nM | – | 1.1
[12], 3000 nM | – | 1.25
[13], 4.1 nM | – | 0.982
[13], 12.3 nM | – | 0.855
[13], 37 nM | – | 0.854
[13], 111.1 nM | – | 0.921
[13], 333.3 nM | – | 0.972
[13], 1000 nM | – | 1.05
[13], 3000 nM | – | 0.879
[14], 4.1 nM | – | 1.08
[14], 12.3 nM | – | 1.12
[14], 37 nM | – | 0.963
[14], 111.1 nM | – | 1.09
[14], 333.3 nM | – | 1.1
[14], 1000 nM | – | 0.904
[14], 3000 nM | – | 1.14
